From US20180318383A1, “PEPTIDE HAVING NEURONAL LOSS PREVENTION AND REGENERATION EFFECTS, AND COMPOSITION CONTAINING SAME” (GEMVAX & KAEL CO., LTD., priority 2015, published 2018)

Assays:
NSCs [1] = assay: Mitochondria cell membrane potential (JC-1); assay type: cell-based, rat; conditions: 20 μM Aβ25-35 + PEP1 1, 10, 50 μM, 48 hours
Protocol: NSCs were plated in a 96-well plate at a density of 5×10^5 cells/well. The cells were treated with 20 μM Aβ25-30 and each concentration of PEP1 (1, 10 or 50 μM) at 37° C. for 48 hours.
The mitochondria cell membrane potential was measured using a JC-1 mitochondria cell membrane potential observation kit. The mitochondria cell membrane potential was observed using an ELISA reader. […] By observing dead cells or unhealthy cells at an FITC wavelength, it was confirmed that JC-1 is in a monomer state.

[2] = numerous clinical trials targeting various diseases; cited from earlier work
NSCs [3] = assay: NSC proliferation (BrdU and CFU assays); assay type: cell-based, rat; conditions: 48 hours, BrdU
Protocol: NSCs were treated with different concentrations of PEP1 and 20 μM Aβ25-30 for 48 hours. Afterward, NSCs were cultured in bromodeoxyuridine (BrdU)-labeled media for 5 hours and observed using a kit. Cell division was evaluated by measuring absorbance at 370 nm and reference absorbance at 492 nm. All results were normalized based on a cell-free well.
A CFU assay was carried out by the following method. Briefly, 0.25×10^5 NSCs were plated in a 6-well plate, and treated with 20 μM Aβ25-30 and then with PEP1 at 1, 10 or 50 μM for 48 hours. The cells were washed with DPBS, and then the medium was exchanged with a fresh cell culture medium. Fourteen days later, the cells were washed again with DPBS, and stained with 0.5% crystal violet dissolved in methanol for 30 minutes at room temperature. Following staining, the plate was washed with DPBS and then dried. The number of colonies was observed using a stereoscopic microscope, and among these colonies, those smaller than 2 mm or faintly stained were removed.

DCX = DCX expression in 3XTg-AD mice (western blotting, immunostaining); assay type: in vivo; conditions: hippocampus and whole brain; s.c. three times a week for two months; vs control and Donepezil, same amount
Protocol: To test the efficacy of PEP1 on AD, AD transgenic mice (3XTg-AD) were purchased from Jackson Laboratory. Genetic characteristics of the transgenic mice are as follows: B6; 129-Psen1tm1Mpm Tg(APPSwe, tauP301L)1Lfa/Mmjax. […] One week after mice were confirmed as pregnant, new mice were delivered and weaned for 3 weeks. Two weeks later, mature mice were obtained.
During the preliminary breeding and the entire period of the experiment, a temperature was maintained at 23±2° C. and a relative humidity was maintained at 60±10%, and then the mice were raised under a 12-hour dark/light cycle. Experimental animals were divided into five groups, and each group included 10 animals. The divided experimental groups are as follows. […]
The PEP1, physiological saline, donepezil and scramble peptide were subcutaneously injected at each concentration three times a week for two months from the age of 12 months, and then two months after the injection, cognitive/memory behavior tests (passive avoidance test and Y maze test) were performed to examine a degree of improvement in cognitive function and memory function. After the brain was extracted to separate the hippocampus, the amounts of amyloid beta in the hippocampus and the whole brain, and the amounts of an amyloid beta oligomer and NFT generated by tau hyperphosphorylation were determined by western blotting and immunostaining. […]

Sequence: EARPALLTSRLRFIPK (homo sapiens) [PEP1, hTERT-derived peptide consisting of 16 amino acids, telomerase location [611-626]]
- mitochondria cell membrane potential (NSCs [1]): restored the cell membrane potential up to a level in a normal range
- toxicity / side effects [2]: stable in terms of side effects
- proliferation of NSCs (NSCs [3]; 20 μM Aβ25-35 + PEP1 up to 100 μM, vs 20 μM Aβ25-35 only, CFU): gradually increased
- proliferation (NSCs [3]; NSCs, PEP1 alone 0-200 μM, up to 100 μM): not influenced
- DCX (DCX): increased
